According to patent US8080529B2, “Macrolides with anti-inflammatory activity” (Glaxo Group Limited, priority 2005, dated 2011):
Where two headings read alike, the source gives them in different places.

How the values were obtained:
TNF-α [1] = test: Inhibition of TNF-α production by stimulated human peripheral blood leukocytes in vitro; type: cell-based; settings: for inhibition at 10 µM / inhibition at 50 µM: Homo sapiens, Leukocyte, read-out: Percentage of inhibition of TNF-α production
Outline: (§1)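 Compound at 10 or 50 μM, given 2 h ahead of an overnight LPS, PMA or zymosan challenge, was tested on human PBL in RPMI with 10% FCS at 37 °C. Sandwich ELISA quantified supernatant cytokine.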

IL-1α = test: Inhibition of IL-1 production by stimulated human peripheral blood leukocytes in vitro; type: cell-based; settings: for inhibition at 10 µM / inhibition at 50 µM: Homo sapiens, Leukocyte, read-out: Percentage of inhibition of IL-1α production
IL-6 = test: Inhibition of IL-6 production by stimulated human peripheral blood leukocytes in vitro; type: cell-based; settings: for inhibition at 10 µM / inhibition at 50 µM: Homo sapiens, Leukocyte, read-out: Percentage of inhibition of IL-6 production
Outline: as §1

IL-8 = test: Inhibition of IL-8 production by stimulated human peripheral blood leukocytes in vitro; type: cell-based; settings: for inhibition at 10 µM / inhibition at 50 µM: Homo sapiens, Leukocyte, read-out: Percentage of inhibition of IL-8 production
Outline: as §1

[2] = tested on: human peripheral blood mononuclear cells (PBMC); test: Effects on human T-cell proliferation in vitro (3H-thymidine incorporation); type: cell-based; settings: for inhibition at 10 µM / inhibition at 50 µM: Homo sapiens, PBMC, read-out: Percentage of inhibition of proliferation of stimulated PBMC
Procedure: The influence of the various test compounds at two different concentrations (50 μM and 10 μM) on cell proliferation of human peripheral blood mononuclear cells (PBMC) was assessed. […] The cells were pulsed with 1 μCi of ^3H-thymidine (Amersham, USA) per well during the last 18 h of the culture, and were harvested on the 96-well filter (Packard Bioscience, USA) using a multiple cell harvester (Packard, USA). The incorporation of ^3H-thymidine in activated cells were measured using TopCount NXT (Packard, USA). […] The positive control refers to LPS-, PMA- or zymosan-stimulated samples that were not treated with test compounds.

Hep G2 = test: Cytotoxicity assay (MTT), Hep G2 cell line; type: cell-based; settings: 24 h
Outline: (§2)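 Hep G2 and A549 cells were cultured 24 h at 37° C in RPM medium with test compounds at 50 μM and 12.5 μM. MTT was added for 0.5-2 h and formazan read at 490 nm. Growth value calculated as OD490 treated/OD490 nontreated ×100.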

A549 = test: Cytotoxicity assay (MTT), A549 cell line; type: cell-based; settings: 24 h
Outline: as §2

TNF-α [3] = test: Lipopolysaccharide induced TNF-α production in Balb/cJ mice; type: in vivo; settings: 10 mg/kg intraperitoneally, 30 min before LPS; 90 min after LPS

CC[C@H]1OC(=O)[C@H](C)[C@@H](O[C@H]2C[C@@](C)(OC)[C@@H](OC(=O)CCN(CC)CC)[C@H](C)O2)[C@H](C)[C@@H](O[C@@H]2O[C@H](C)C[C@H](N(C)C)[C@H]2O)[C@](C)(OC)C[C@@H](C)NC(=O)[C@H](C)[C@@H](O)[C@]1(C)O [Example 3, 4″-O-(3-Diethylamino-Propionyl)-6-O-methyl-8a-aza-8a-homoerythromycin A]
inhibition at 10 µM (TNF-α [1]; 10 μM, LPS-stimulated PBL): 72%
inhibition at 10 µM (TNF-α [1]; 10 μM, PMA-stimulated PBL): 91%
inhibition at 10 µM (TNF-α [1]; 10 μM, zymosan-stimulated PBL): 76%
inhibition at 50 µM (TNF-α [1]; 50 μM, LPS-stimulated PBL): 81%
inhibition at 50 µM (TNF-α [1]; 50 μM, PMA-stimulated PBL): 83%
inhibition at 50 µM (TNF-α [1]; 50 μM, zymosan-stimulated PBL): 96%
inhibition at 10 µM (IL-1α; 10 μM, LPS-stimulated PBL): 87%
inhibition at 10 µM (IL-1α; 10 μM, PMA-stimulated PBL): 73%
inhibition at 10 µM (IL-1α; 10 μM, zymosan-stimulated PBL): 88%
inhibition at 50 µM (IL-1α; 50 μM, LPS-stimulated PBL): 86%
inhibition at 50 µM (IL-1α; 50 μM, PMA-stimulated PBL): 68%
inhibition at 50 µM (IL-1α; 50 μM, zymosan-stimulated PBL): 91%
inhibition at 10 µM (IL-6; 10 μM, LPS-stimulated PBL): 56%
inhibition at 10 µM (IL-6; 10 μM, PMA-stimulated PBL): 60%
inhibition at 10 µM (IL-6; 10 μM, zymosan-stimulated PBL): 44%
inhibition at 50 µM (IL-6; 50 μM, LPS-stimulated PBL): 78%
inhibition at 50 µM (IL-6; 50 μM, PMA-stimulated PBL): 66%
inhibition at 50 µM (IL-6; 50 μM, zymosan-stimulated PBL): 74%
inhibition at 10 µM (IL-8; 10 μM, LPS-stimulated PBL): 48%
inhibition at 10 µM (IL-8; 10 μM, PMA-stimulated PBL): 30%
inhibition at 10 µM (IL-8; 10 μM, zymosan-stimulated PBL): 32%
inhibition at 50 µM (IL-8; 50 μM, LPS-stimulated PBL): 71%
inhibition at 50 µM (IL-8; 50 μM, PMA-stimulated PBL): 22%
inhibition at 50 µM (IL-8; 50 μM, zymosan-stimulated PBL): 16%
inhibition at 10 µM ([2]; PHA, 10 μM): 2%
inhibition at 50 µM ([2]; PHA, 50 μM): 75%
inhibition at 10 µM ([2]; PMA + iono., 10 μM): 17%
inhibition at 50 µM ([2]; PMA + iono., 50 μM): 81%
Percentage of inhibition of cell growth (Hep G2; 12.5 μM): 0%
Percentage of inhibition of cell growth (Hep G2; 50 μM): 0%
Percentage of inhibition of cell growth (A549; 12.5 μM): 0%
Percentage of inhibition of cell growth (A549; 50 μM): 0%

CCC1OC(=O)C(C)C(OC2CC(C)(OC)C(OC(=O)CCN(CC)CC)C(C)O2)C(C)C(OC2OC(C)CC(N(C)C)C2O)C(C)(OC)CC(C)C(=O)NC(C)C(O)C1(C)O (stereo not drawn) [Example 8, 4″-O-(3-Diethylamino-propionyl)-6-O-methyl-9a-aza-9a-homoerythromycin A]
Percentage of inhibition of TNF-α production (TNF-α [1]; 10 μM, LPS-stimulated PBL): 51%
Percentage of inhibition of TNF-α production (TNF-α [1]; 10 μM, PMA-stimulated PBL): 46%
Percentage of inhibition of TNF-α production (TNF-α [1]; 10 μM, zymosan-stimulated PBL): 87%
Percentage of inhibition of TNF-α production (TNF-α [1]; 50 μM, LPS-stimulated PBL): 85%
Percentage of inhibition of TNF-α production (TNF-α [1]; 50 μM, PMA-stimulated PBL): 87%
Percentage of inhibition of TNF-α production (TNF-α [1]; 50 μM, zymosan-stimulated PBL): 92%
Percentage of inhibition of IL-1α production (IL-1α; 10 μM, LPS-stimulated PBL): 66%
Percentage of inhibition of IL-1α production (IL-1α; 10 μM, PMA-stimulated PBL): 71%
Percentage of inhibition of IL-1α production (IL-1α; 10 μM, zymosan-stimulated PBL): 86%
Percentage of inhibition of IL-1α production (IL-1α; 50 μM, LPS-stimulated PBL): 83%
Percentage of inhibition of IL-1α production (IL-1α; 50 μM, PMA-stimulated PBL): 86%
Percentage of inhibition of IL-1α production (IL-1α; 50 μM, zymosan-stimulated PBL): 94%
Percentage of inhibition of IL-6 production (IL-6; 10 μM, LPS-stimulated PBL): 16%
Percentage of inhibition of IL-6 production (IL-6; 10 μM, PMA-stimulated PBL): 24%
Percentage of inhibition of IL-6 production (IL-6; 10 μM, zymosan-stimulated PBL): 57%
Percentage of inhibition of IL-6 production (IL-6; 50 μM, LPS-stimulated PBL): 63%
Percentage of inhibition of IL-6 production (IL-6; 50 μM, PMA-stimulated PBL): 100%
Percentage of inhibition of IL-6 production (IL-6; 50 μM, zymosan-stimulated PBL): 80%
Percentage of inhibition of IL-8 production (IL-8; 10 μM, LPS-stimulated PBL): 38%
Percentage of inhibition of IL-8 production (IL-8; 10 μM, PMA-stimulated PBL): 40%
Percentage of inhibition of IL-8 production (IL-8; 10 μM, zymosan-stimulated PBL): 31%
Percentage of inhibition of IL-8 production (IL-8; 50 μM, LPS-stimulated PBL): 79%
Percentage of inhibition of IL-8 production (IL-8; 50 μM, PMA-stimulated PBL): 89%
Percentage of inhibition of IL-8 production (IL-8; 50 μM, zymosan-stimulated PBL): 88%
Percentage of inhibition of proliferation of stimulated PBMC ([2]; PHA, 10 μM): 96%
Percentage of inhibition of proliferation of stimulated PBMC ([2]; PHA, 50 μM): 100%
Percentage of inhibition of proliferation of stimulated PBMC ([2]; PMA + iono., 10 μM): 37%
Percentage of inhibition of proliferation of stimulated PBMC ([2]; PMA + iono., 50 μM): 99%
% inhibition of TNF-α production (plasma) (TNF-α [3]): 93%

CC[C@H]1OC(=O)[C@H](C)[C@@H](O[C@H]2C[C@@](C)(OC)[C@@H](OC(=O)CCN(CC)CC)[C@H](C)O2)[C@H](C)[C@@H](O[C@@H]2O[C@H](C)C[C@H](N(C)C)[C@H]2O)[C@](C)(OC)C[C@@H](C)C(=O)[C@H](C)[C@H]2NC(=O)O[C@@]21C [Example 9, 11,12-Carbamate-11,12-dideoxy-4″-O-(3-diethylamino-propionyl)-6-O-methyl-erythromycin A]
inhibition at 10 µM (TNF-α [1]; 10 μM, LPS-stimulated PBL): 73%
inhibition at 10 µM (TNF-α [1]; 10 μM, PMA-stimulated PBL): 93%
inhibition at 10 µM (TNF-α [1]; 10 μM, zymosan-stimulated PBL): 14%
inhibition at 50 µM (TNF-α [1]; 50 μM, LPS-stimulated PBL): 96%
inhibition at 50 µM (TNF-α [1]; 50 μM, PMA-stimulated PBL): 85%
inhibition at 50 µM (TNF-α [1]; 50 μM, zymosan-stimulated PBL): 72%
inhibition at 10 µM (IL-1α; 10 μM, LPS-stimulated PBL): 72%
inhibition at 10 µM (IL-1α; 10 μM, PMA-stimulated PBL): 69%
inhibition at 10 µM (IL-1α; 10 μM, zymosan-stimulated PBL): 82%
inhibition at 50 µM (IL-1α; 50 μM, LPS-stimulated PBL): 82%
inhibition at 50 µM (IL-1α; 50 μM, PMA-stimulated PBL): 72%
inhibition at 50 µM (IL-1α; 50 μM, zymosan-stimulated PBL): 0%
inhibition at 10 µM (IL-6; 10 μM, LPS-stimulated PBL): 22%
inhibition at 10 µM (IL-6; 10 μM, PMA-stimulated PBL): 30%
inhibition at 10 µM (IL-6; 10 μM, zymosan-stimulated PBL): 0%
inhibition at 50 µM (IL-6; 50 μM, LPS-stimulated PBL): 100%
inhibition at 50 µM (IL-6; 50 μM, PMA-stimulated PBL): 95%
inhibition at 50 µM (IL-6; 50 μM, zymosan-stimulated PBL): 100%
inhibition at 10 µM (IL-8; 10 μM, LPS-stimulated PBL): 18%
inhibition at 10 µM (IL-8; 10 μM, PMA-stimulated PBL): 0%
inhibition at 10 µM (IL-8; 10 μM, zymosan-stimulated PBL): 0%
inhibition at 50 µM (IL-8; 50 μM, LPS-stimulated PBL): 96%
inhibition at 50 µM (IL-8; 50 μM, PMA-stimulated PBL): 94%
inhibition at 50 µM (IL-8; 50 μM, zymosan-stimulated PBL): 91%
inhibition at 10 µM ([2]; PHA, 10 μM): 91%
inhibition at 50 µM ([2]; PHA, 50 μM): 100%
inhibition at 10 µM ([2]; PMA + iono., 10 μM): 17%
inhibition at 50 µM ([2]; PMA + iono., 50 μM): 100%
Percentage of inhibition of cell growth (Hep G2; 12.5 μM): 4%
Percentage of inhibition of cell growth (Hep G2; 50 μM): 15%
Percentage of inhibition of cell growth (A549; 12.5 μM): 0%
Percentage of inhibition of cell growth (A549; 50 μM): 0%
